Experimental findings from US12517130B2, “Isoindoline derivatives which bind to an ATP binding site” (NeoPhore Limited, priority 2020, dated 2026) are described below.

As usually defined, the pIC50 is the negative decadic logarithm of the IC50, by convention in mol/L.

pIC50: −log10 of the molar value. Structures can show the parent of a compound that is named as a salt.

In assay [1] the target is T1, N-terminal domain of MLH1 (Homo sapiens, UniProt P40692).
T1 construct: by surface plasmon resonance to the N-terminal domain of MLH1
T1 sequence (P40692 15-340 limits assumed): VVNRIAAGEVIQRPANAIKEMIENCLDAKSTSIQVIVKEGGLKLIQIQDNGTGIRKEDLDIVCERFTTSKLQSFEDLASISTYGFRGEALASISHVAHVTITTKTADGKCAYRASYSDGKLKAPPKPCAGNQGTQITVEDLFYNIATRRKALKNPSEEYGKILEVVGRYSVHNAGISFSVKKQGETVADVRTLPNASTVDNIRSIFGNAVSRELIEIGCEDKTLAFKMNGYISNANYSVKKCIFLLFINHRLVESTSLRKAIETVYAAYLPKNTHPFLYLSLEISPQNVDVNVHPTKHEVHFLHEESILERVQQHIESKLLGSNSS
Put plainly: Surface plasmon resonance binding to N-terminal domain of MLH1. From the text:
(§1) These probes are therefore unsuitable for use as fluorescence polarisation screening tools.
In general terms: In SPR one partner is held on a chip, and binding of the other changes the refractive index at the surface.

The next assay addresses T2, MLH1 (Homo sapiens, UniProt P40692).
T2 sequence (P40692 15-340 limits assumed): T1 sequence (P40692 15-340 limits assumed)
Put plainly: Fluorescence polarisation assay of commercially available ATP-derived fluorescent probes, according to the type of protocol exemplified. The class given is binding. The following applies: substance used as the fluorescent probe. How it is done:
as §1
An 11 point 1 in 2 serial dilution of protein (either recombinant N-terminal PMS2 (residues 1-365) or recombinant N-terminal MLH1 (residues 15-340)) in assay buffer (25 mM HEPES, pH 7.5, 250 mM NaCl, 10 mM MgCl2, 0.01% Triton X-100, 5 mM Dithiothreitol) was constructed in a clear polypropylene plate (Greiner Bio-One, item number 784201). The top concentration of the serial dilution was 2 μM. The 12th concentration point was buffer only (no protein control).
The serial dilution was used as the 2× protein and 20 μL was added to a Black Fluotrac 200 384-well medium binding plate (Greiner Bio-One, item number 781076). Plates were centrifuged for 1 minute at 250×g and were incubated at room temperature for 30 minutes prior to the addition of 20 μL of 2× (either 5 nM or 2 nM) of probe in assay buffer (prepared from a 100 μM DMSO stock) with a MultiDrop Combi (ThermoFisher).
Compound plates were centrifuged for 1 minute at 250×g for 1 minute and were incubated at room temperature for 1 hour before being read on a PheraStar FSX (fitted with 384-well aperture spoon and appropriate FP module). The gain and focus were adjusted before each plate was read so that the polarisation of the no protein control was equal to 35 mP. Data was plotted and analysed in GraphPad Prism 8.1.0 (FIGS. 6-9).
A general note: Polarisation of emitted light reports the rotation of a fluorescent probe.

In assay [2] the target is T3, recombinant N-terminal MLH1 (residues 15-340) (Homo sapiens, UniProt P40692).
T3 construct: recombinant N-terminal MLH1 (residues 15-340) in assay buffer
T3 sequence (P40692 15-340): T1 sequence (P40692 15-340 limits assumed)
Briefly: Assay A: Fluorescence Polarisation Assay for MLH1 (displacement of Example 1 probe). The class given is binding. The note with it: Assay Protocol A; 100 nM N-terminal MLH1, 5 nM Example 1 probe; FIG. 10. The procedure:
Assay A: Fluorescence Polarisation Assay for MLH1
Test compounds, as 10 mM DMSO stocks, were dispensed into a Black Fluotrac 200 384-well medium binding plate (Greiner Bio-One, item number 781076) using a Labcyte Echo acoustic liquid handler. Test compounds were added to wells in columns 1-22 whilst DMSO was added to wells in columns 23 and 24 in order to normalise the plate. 20 μL of a 2× solution (200 nM) of recombinant N-terminal MLH1 (residues 15-340) in assay buffer (25 mM HEPES, pH 7.5, 250 mM NaCl, 10 mM MgCl2, 0.01% Triton X-100, 5 mM Dithiothreitol) was added to all wells in columns 1-23 and 20 μL assay buffer was added to all wells in column 24 using a MultiDrop Combi (ThermoFisher). […] Compound plates were centrifuged for 1 minute at 250×g for 1 minute and were incubated at room temperature for 1 hour before being read on a PheraStar FSX (fitted with 384-well aperture spoon and 590 675 675 FP optic module). The gain and focus were adjusted before each plate was read so that the polarisation of a no enzyme control (column 24) was equal to 35 mP. […]

Assay [3] concerns the target T4, recombinant N-terminal PMS2 (residues 1-365) (Homo sapiens, UniProt P54278).
T4 construct: recombinant N-terminal PMS2 (residues 1-365) in assay buffer
T4 sequence (P54278 1-365): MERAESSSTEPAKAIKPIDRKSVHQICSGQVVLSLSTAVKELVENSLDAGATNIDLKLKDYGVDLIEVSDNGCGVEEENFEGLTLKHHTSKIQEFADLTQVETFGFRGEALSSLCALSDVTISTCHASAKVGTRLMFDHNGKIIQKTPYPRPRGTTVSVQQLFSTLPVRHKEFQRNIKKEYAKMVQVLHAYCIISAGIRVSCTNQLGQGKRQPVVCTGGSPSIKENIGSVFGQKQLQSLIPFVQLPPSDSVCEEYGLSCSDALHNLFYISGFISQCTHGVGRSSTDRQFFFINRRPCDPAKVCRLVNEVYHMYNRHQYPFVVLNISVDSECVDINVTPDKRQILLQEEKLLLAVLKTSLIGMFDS
Briefly: Assay C: Fluorescence Polarisation Assay for PMS2 (displacement of Example 5 probe). The class given is binding. The following applies: Assay Protocol C; 10 nM N-terminal PMS2, 5 nM Example 5 probe; FIG. 11. The procedure:
Assay C: Fluorescence Polarisation Assay for PMS2
Test compounds, as 10 mM DMSO stocks, were dispensed into a Black Fluotrac 200 384 well medium binding plate (Greiner Bio-One, item number 781076) using a Labcyte Echo acoustic liquid handler. For single point screening, test compounds were added to wells in columns 1-22 whilst DMSO was added to wells in columns 23 and 24 in order to normalise the plate. For potency determination, serial dilutions of test compounds were added to wells in columns 3-22 and DMSO volume was normalised across the plate.
20 μL of a 2× solution (20 nM) of recombinant N-terminal PMS2 (residues 1-365) in assay buffer (25 mM HEPES, pH 7.5, 250 mM NaCl, 10 mM MgCl2, 0.01% Triton X-100, 5 mM Dithiothreitol) was added to all wells in columns 2-23 for potency determination or columns 1-23 for single point screening. 20 μL assay buffer was added to all wells in columns 1 and 24 (column 24 only for single point screening) using a MultiDrop Combi (ThermoFisher). […]
Compound plates were centrifuged for 1 minute at 250×g and were incubated at room temperature for 1 hour before being read on a PheraStar FSX (fitted with 384-well aperture spoon and 540 590 590 FP optic module). The gain and focus were adjusted before each plate was read so that the polarisation of a no enzyme control (column 24) was equal to 35 mP. […]

`CC1=CC(C)=[N+]2C1=Cc1ccc(CNC(=O)CSP(=O)(O)OP(=O)(O)OP(=O)(O)OC[C@H]3O[C@@H](n4cnc5c(N)ncnc54)[C@H](O)[C@@H]3O)n1[B-]2(F)F` [BODIPY-FL-ATP-gamma-S]: the “binding by surface plasmon resonance” value in assay [1] is listed as “very weak binding”. For the same molecule, the “signal in fluorescence polarisation assay” value on MLH1 was “no signal”.

As for `CC(C)c1cc(C(=O)N2Cc3ccc(CN4CCNCC4)cc3C2)c(O)cc1O` [compound AB, (2,4-dihydroxy-5-isopropylphenyl)(5-(piperazin-1-ylmethyl)isoindolin-2-yl)methanone hydrochloride], the pIC50 is 4.97 in assay [2] and 6.75 in assay [3].
